Data taken from US20110230493A1, “1-OXA-8-Azaspiro [4,5] Decabe-8-Carboxamide Compounds as FAAH Inhibitors” (Pfizer Inc., priority 2008, published 2011).

How the values were obtained:
[1] = target: T1, rat FAAH (Rattus norvegicus, UniProt P97612); assay: FAAH assay, rat FAAH enzyme inactivation (kinact/Ki); assay type: biochemical; details: pH 7.4, in vitro, oleamide 50 μM, 30° C., read-out: rFAAH kinact/Ki
T1 construct: made in house; host or cells: E. coli
T1 sequence (P97612 1-579): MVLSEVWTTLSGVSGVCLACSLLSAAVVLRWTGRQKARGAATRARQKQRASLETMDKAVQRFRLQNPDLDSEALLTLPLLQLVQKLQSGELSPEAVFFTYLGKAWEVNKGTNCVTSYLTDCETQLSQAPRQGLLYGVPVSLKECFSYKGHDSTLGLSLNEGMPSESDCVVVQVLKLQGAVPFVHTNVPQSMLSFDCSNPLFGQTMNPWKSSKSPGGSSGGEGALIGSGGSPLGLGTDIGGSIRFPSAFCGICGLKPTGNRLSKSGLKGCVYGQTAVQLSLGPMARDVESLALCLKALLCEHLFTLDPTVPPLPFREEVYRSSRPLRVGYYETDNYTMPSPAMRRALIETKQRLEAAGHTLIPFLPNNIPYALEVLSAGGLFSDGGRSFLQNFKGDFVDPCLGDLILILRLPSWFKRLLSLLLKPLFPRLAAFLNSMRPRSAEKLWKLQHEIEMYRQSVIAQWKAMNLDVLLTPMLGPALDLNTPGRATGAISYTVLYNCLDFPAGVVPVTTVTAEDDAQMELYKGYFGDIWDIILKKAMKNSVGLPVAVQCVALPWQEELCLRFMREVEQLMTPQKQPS
In short: (§1)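 Oleamide hydrolysis by 1-4 nM purified E. coli-expressed FAAH (substrate 50 μM = Km) coupled to GDH/NADH, pH 7.4 phosphate, 7.5% DMSO and EtOH, 30° C; A340 followed 90 min. kobs from mono-exponential fits; kinact/Ki from kobs-versus-concentration slope, multiplied by two.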

[2] = tested on: Male Sprague-Dawley Rats; assay: In vivo Complete Freund's Adjuvant (CFA) efficacy assay, inhibition of allodynia; set-up: species or system rat; key: (+) indicates the test compound was determined to be efficacious at 3 mpk, oral dosing; (−) indicates the test compound was determined to not be efficacious at 3 mpk, oral dosing; details: 3 mpk, oral dosing; PWT four hours postdose; p < 0.05 vs vehicle group
In short: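 Adult male Sprague-Dawley rats weighing 200 g-250 g received an intra-plantar injection of 150 uL Complete Freund's Adjuvant into the left hindpaw to induce inflammation. On day 4 after injection, baseline paw withdrawal threshold was measured with Von Frey hairs using the Dixon Up and Down method. Threshold was measured again at four hours postdose. Treatment groups were compared by ANOVA with Dunnett's two-tailed test.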

[3] = target: T2, human FAAH (Homo sapiens, UniProt O00519); assay: FAAH assay, human FAAH enzyme inactivation (kinact/Ki); assay type: biochemical; details: pH 7.4, in vitro, oleamide 50 μM, 30° C., read-out: hFAAH kinact/Ki
T2 construct: made in house; host or cells: E. coli
T2 sequence (O00519 1-579): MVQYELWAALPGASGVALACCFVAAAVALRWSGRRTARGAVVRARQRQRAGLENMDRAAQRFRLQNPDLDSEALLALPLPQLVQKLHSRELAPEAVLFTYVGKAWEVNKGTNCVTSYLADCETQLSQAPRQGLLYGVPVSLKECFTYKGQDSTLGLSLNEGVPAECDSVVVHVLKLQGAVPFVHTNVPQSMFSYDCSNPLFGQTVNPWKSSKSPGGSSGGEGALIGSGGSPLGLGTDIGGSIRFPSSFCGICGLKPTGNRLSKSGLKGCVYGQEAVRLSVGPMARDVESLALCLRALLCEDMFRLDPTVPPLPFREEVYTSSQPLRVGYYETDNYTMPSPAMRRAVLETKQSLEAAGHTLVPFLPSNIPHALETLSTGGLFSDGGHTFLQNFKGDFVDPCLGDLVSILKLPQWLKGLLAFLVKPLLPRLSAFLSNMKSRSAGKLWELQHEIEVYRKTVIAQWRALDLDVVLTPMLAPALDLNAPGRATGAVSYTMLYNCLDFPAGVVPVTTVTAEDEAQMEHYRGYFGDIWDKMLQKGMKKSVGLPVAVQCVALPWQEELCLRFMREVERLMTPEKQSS
In short: as §1

Compound: Cc1noc(NC(=O)N2CCC3(CC2)C[C@@H](c2ccc(OCc4ccc(Cl)cc4)cc2)CO3)c1C [Example 50, (3S)-3-{4-[(4-chlorobenzyl)oxy]phenyl}-N-(3,4-dimethylisoxazol-5-yl)-1-oxa-8-azaspiro[4.5]decane-8-carboxamide]
- kinact/KI [1]: 9110 M⁻¹ s⁻¹
- CFA Efficacy [2]: (−)
- kinact/KI [3]: 7470 M⁻¹ s⁻¹

Compound: Cc1noc(NC(=O)N2CCC3(CC2)C[C@H](c2ccc(OCc4ccc(F)c(F)c4)cc2)CO3)c1C [Example 51, (3R)-3-{4-[(3,4-difluorobenzyl)oxy]phenyl}-N-(3,4-dimethylisoxazol-5-yl)-1-oxa-8-azaspiro[4.5]decane-8-carboxamide]
- kinact/KI [1]: 17300 M⁻¹ s⁻¹
- CFA Efficacy [2]: (+)
- kinact/KI [3]: 16700 M⁻¹ s⁻¹

Compound: Cc1noc(NC(=O)N2CCC3(CC2)C[C@@H](c2ccc(OCc4ccc(F)c(F)c4)cc2)CO3)c1C [Example 52, (3S)-3-{4-[(3,4-difluorobenzyl)oxy]phenyl}-N-(3,4-dimethylisoxazol-5-yl)-1-oxa-8-azaspiro[4.5]decane-8-carboxamide]
- kinact/KI [1]: 6170 M⁻¹ s⁻¹
- CFA Efficacy [2]: (+)
- kinact/KI [3]: 10100 M⁻¹ s⁻¹

Compound: Cc1noc(NC(=O)N2CCC3(CC2)C[C@@H](c2cccc(-c4ccc(F)c(F)c4)c2)CO3)c1C [Example 57, (3S)-3-(3′,4′-difluorobiphenyl-3-yl)-N-(3,4-dimethylisoxazol-5-yl)-1-oxa-8-azaspiro[4.5]decane-8-carboxamide]
- kinact/KI [1]: 2110 M⁻¹ s⁻¹
- CFA Efficacy [2]: (+)
- kinact/KI [3]: 1610 M⁻¹ s⁻¹

Compound: Cc1noc(NC(=O)N2CCC3(CC2)C[C@H](c2cccc(-c4ccc(F)cc4)c2)CO3)c1C [Example 59, (3R)—N-(3,4-dimethylisoxazol-5-yl)-3-(4′-fluorobiphenyl-3-yl)-1-oxa-8-azaspiro[4.5]decane-8-carboxamide]
- kinact/KI [1]: 879 M⁻¹ s⁻¹
- CFA Efficacy [2]: (+)
- kinact/KI [3]: 3130 M⁻¹ s⁻¹

Compound: Cc1noc(NC(=O)N2CCC3(CC2)C[C@@H](c2cccc(-c4ccc(F)cc4)c2)CO3)c1C [Example 60, (3S)—N-(3,4-dimethylisoxazol-5-yl)-3-(4′-fluorobiphenyl-3-yl)-1-oxa-8-azaspiro[4.5]decane-8-carboxamide]
- kinact/KI [1]: 2750 M⁻¹ s⁻¹
- CFA Efficacy [2]: (+)
- kinact/KI [3]: 2110 M⁻¹ s⁻¹

Compound: Cc1noc(NC(=O)N2CCC3(CC2)C[C@H](c2cccc(-c4ccc(Cl)cc4)c2)CO3)c1C [Example 61, (3R)-3-(4′-chlorobiphenyl-3-yl)-N-(3,4-dimethylisoxazol-5-yl)-1-oxa-8-azaspiro[4.5]decane-8-carboxamide]
- kinact/KI [1]: 433 M⁻¹ s⁻¹
- CFA Efficacy [2]: (+)
- kinact/KI [3]: 1220 M⁻¹ s⁻¹

Compound: Cc1noc(NC(=O)N2CCC3(CC2)C[C@@H](c2cccc(-c4ccc(Cl)cc4)c2)CO3)c1C [Example 62, (3S)-3-(4′-chlorobiphenyl-3-yl)-N-(3,4-dimethylisoxazol-5-yl)-1-oxa-8-azaspiro[4.5]decane-8-carboxamide]
- kinact/KI [1]: 2260 M⁻¹ s⁻¹
- CFA Efficacy [2]: (+)
- kinact/KI [3]: 2920 M⁻¹ s⁻¹

Compound: Cc1noc(NC(=O)N2CCC3(CC2)C[C@@H](c2cccc(-c4ccc(OC(F)(F)F)cc4)c2)CO3)c1C [Example 63, (3S)—N-(3,4-dimethylisoxazol-5-yl)-3-[4′-(trifluoromethoxy)biphenyl-3-yl]-1-oxa-8-azaspiro[4.5]decane-8-carboxamide]
- kinact/KI [1]: 2160 M⁻¹ s⁻¹
- CFA Efficacy [2]: (+)
- kinact/KI [3]: 2350 M⁻¹ s⁻¹

Compound: Cn1nnnc1NC(=O)N1CCC2(CC1)C[C@H](c1cccc(Oc3ccc(Cl)cn3)c1)CO2 [Example 81, 3-{3-[(5-chloropyridin-2-yl)oxy]phenyl}-N-(1-methyl-1H-tetrazol-5-yl)-1-oxa-8-azaspiro[4.5]decane-8-carboxamide]
- kinact/KI [1]: 11200 M⁻¹ s⁻¹
- CFA Efficacy [2]: (+)
- kinact/KI [3]: 4890 M⁻¹ s⁻¹

Compound: Cn1nnnc1NC(=O)N1CCC2(CC1)C[C@@H](c1ccc(OCc3cccc(F)c3)cc1)CO2 [Example 87, (3S)-3-{4-[(3-fluorobenzyl)oxy]phenyl}-N-(1-methyl-1H-tetrazol-5-yl)-1-oxa-8-azaspiro[4.5]decane-8-carboxamide]
- kinact/KI [1]: 4110 M⁻¹ s⁻¹
- CFA Efficacy [2]: (+)
- kinact/KI [3]: 15900 M⁻¹ s⁻¹

Compound: Cn1nnnc1NC(=O)N1CCC2(CC1)C[C@H](c1ccc(OCc3ccc(F)c(F)c3)cc1)CO2 [Example 88, (3R)-3-{4-[(3,4-difluorobenzyl)oxy]phenyl}-N-(1-methyl-1H-tetrazol-5-yl)-1-oxa-8-azaspiro[4.5]decane-8-carboxamide]
- kinact/KI [1]: 25000 M⁻¹ s⁻¹
- CFA Efficacy [2]: (+)
- kinact/KI [3]: 32600 M⁻¹ s⁻¹

Compound: Cn1nnnc1NC(=O)N1CCC2(CC1)C[C@@H](c1ccc(OCc3ccc(F)c(F)c3)cc1)CO2 [Example 89, (3S)-3-{4-[(3,4-difluorobenzyl)oxy]phenyl}-N-(1-methyl-1H-tetrazol-5-yl)-1-oxa-8-azaspiro[4.5]decane-8-carboxamide]
- kinact/KI [1]: 9640 M⁻¹ s⁻¹
- CFA Efficacy [2]: (+)
- kinact/KI [3]: 29800 M⁻¹ s⁻¹

Compound: Cn1nnnc1NC(=O)N1CCC2(CC1)C[C@H](c1ccc(OCc3ccc(F)cc3)cc1)CO2 [Example 90, (3R)-3-{4-[(4-fluorobenzyl)oxy]phenyl}-N-(1-methyl-1H-tetrazol-5-yl)-1-oxa-8-azaspiro[4.5]decane-8-carboxamide]
- kinact/KI [1]: 22600 M⁻¹ s⁻¹
- CFA Efficacy [2]: (+)
- kinact/KI [3]: 30800 M⁻¹ s⁻¹

Compound: Cn1nnnc1NC(=O)N1CCC2(CC1)C[C@@H](c1ccc(OCc3ccc(F)cc3)cc1)CO2 [Example 91, (3S)-3-{4-[(4-fluorobenzyl)oxy]phenyl}-N-(1-methyl-1H-tetrazol-5-yl)-1-oxa-8-azaspiro[4.5]decane-8-carboxamide]
- kinact/KI [1]: 7500 M⁻¹ s⁻¹
- CFA Efficacy [2]: (+)
- kinact/KI [3]: 21200 M⁻¹ s⁻¹

Compound: Cn1nnnc1NC(=O)N1CCC2(CC1)C[C@H](c1ccc(OCc3ccc(C(F)(F)F)cn3)cc1)CO2 [Example 95, (3R)—N-(1-methyl-1H-tetrazol-5-yl)-3-(4-{[5-(trifluoromethyl)pyridin-2-yl]methoxy}phenyl)-1-oxa-8-azaspiro[4.5]decane-8-carboxamide]
- kinact/KI [1]: 30300 M⁻¹ s⁻¹
- CFA Efficacy [2]: (+)
- kinact/KI [3]: 21500 M⁻¹ s⁻¹

Compound: Cn1nnnc1NC(=O)N1CCC2(CC1)C[C@H](c1cccc(-c3ccc(F)cc3)c1)CO2 [Example 96, (3R)-3-(4′-fluorobiphenyl-3-yl)-N-(1-methyl-1H-tetrazol-5-yl)-1-oxa-8-azaspiro[4.5]decane-8-carboxamide]
- kinact/KI [1]: 2010 M⁻¹ s⁻¹
- CFA Efficacy [2]: (+)
- kinact/KI [3]: 26300 M⁻¹ s⁻¹

Compound: Cn1nnnc1NC(=O)N1CCC2(CC1)C[C@H](c1cccc(-c3ccc(OC(F)(F)F)cc3)c1)CO2 [Example 97, (3R)—N-(1-methyl-1H-tetrazol-5-yl)-3-[4′-(trifluoromethoxy)biphenyl-3-yl]-1-oxa-8-azaspiro[4.5]decane-8-carboxamide]
- kinact/KI [1]: 1830 M⁻¹ s⁻¹
- CFA Efficacy [2]: (+)
- kinact/KI [3]: 16900 M⁻¹ s⁻¹

Compound: Cn1nnnc1NC(=O)N1CCC2(CC1)C[C@H](c1cccc(-c3ccc(C(F)(F)F)cn3)c1)CO2 [Example 99, (3R)—N-(1-methyl-1H-tetrazol-5-yl)-3-{3-[5-(trifluoromethyl)pyridin-2-yl]phenyl}-1-oxa-8-azaspiro[4.5]decane-8-carboxamide]
- kinact/KI [1]: 2690 M⁻¹ s⁻¹
- CFA Efficacy [2]: (+)
- kinact/KI [3]: 9970 M⁻¹ s⁻¹
